What was measured:
Test in all cases: radiometric filter-binding kinase assay
IGF1R (human) = IGF1R (human) (UniProt P08069)
MAPKAPK2 (human) = MAPKAPK2 (human) (UniProt P49137)
RIPK2 (human) = RIPK2 (human) (UniProt O43353)
PAK4 (human) = PAK4 (human) (UniProt O96013)
SRPK1 (human) = SRPK1 (human) (UniProt Q96SB4)
RPS6KA3 KD1 KD2 (human) = RPS6KA3 KD1 KD2 (human) (UniProt P51812)
MAPK15 (human) = MAPK15 (human) (UniProt Q8TD08)
PAK7 (human) = PAK7 (human) (UniProt Q9P286)
DYRK1A (human) = DYRK1A (human) (UniProt Q13627)
CSNK1D (human) = CSNK1D (human) (UniProt P48730)
PLK1 (human) = PLK1 (human) (UniProt P53350)
Sequence of PLK1 (human) (P53350 whole entry, looked up): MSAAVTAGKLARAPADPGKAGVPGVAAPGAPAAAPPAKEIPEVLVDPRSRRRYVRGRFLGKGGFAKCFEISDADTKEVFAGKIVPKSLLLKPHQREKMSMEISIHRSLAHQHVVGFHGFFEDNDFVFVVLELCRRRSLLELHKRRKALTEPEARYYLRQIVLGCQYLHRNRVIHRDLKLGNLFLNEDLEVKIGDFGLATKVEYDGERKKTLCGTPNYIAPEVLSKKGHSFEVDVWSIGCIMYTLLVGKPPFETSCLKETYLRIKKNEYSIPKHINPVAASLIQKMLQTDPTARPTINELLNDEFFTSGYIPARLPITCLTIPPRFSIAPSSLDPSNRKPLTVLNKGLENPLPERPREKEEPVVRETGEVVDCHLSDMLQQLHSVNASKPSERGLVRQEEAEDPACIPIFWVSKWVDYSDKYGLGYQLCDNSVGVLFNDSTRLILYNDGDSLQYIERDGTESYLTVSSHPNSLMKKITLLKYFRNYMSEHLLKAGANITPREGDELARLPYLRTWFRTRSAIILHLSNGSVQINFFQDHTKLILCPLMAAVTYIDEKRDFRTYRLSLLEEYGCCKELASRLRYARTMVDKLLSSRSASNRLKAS

RPS6KA5 KD1 KD2 (human) = RPS6KA5 KD1 KD2 (human) (UniProt O75582)
Sequence of RPS6KA5 KD1 KD2 (human) (O75582 whole entry, looked up): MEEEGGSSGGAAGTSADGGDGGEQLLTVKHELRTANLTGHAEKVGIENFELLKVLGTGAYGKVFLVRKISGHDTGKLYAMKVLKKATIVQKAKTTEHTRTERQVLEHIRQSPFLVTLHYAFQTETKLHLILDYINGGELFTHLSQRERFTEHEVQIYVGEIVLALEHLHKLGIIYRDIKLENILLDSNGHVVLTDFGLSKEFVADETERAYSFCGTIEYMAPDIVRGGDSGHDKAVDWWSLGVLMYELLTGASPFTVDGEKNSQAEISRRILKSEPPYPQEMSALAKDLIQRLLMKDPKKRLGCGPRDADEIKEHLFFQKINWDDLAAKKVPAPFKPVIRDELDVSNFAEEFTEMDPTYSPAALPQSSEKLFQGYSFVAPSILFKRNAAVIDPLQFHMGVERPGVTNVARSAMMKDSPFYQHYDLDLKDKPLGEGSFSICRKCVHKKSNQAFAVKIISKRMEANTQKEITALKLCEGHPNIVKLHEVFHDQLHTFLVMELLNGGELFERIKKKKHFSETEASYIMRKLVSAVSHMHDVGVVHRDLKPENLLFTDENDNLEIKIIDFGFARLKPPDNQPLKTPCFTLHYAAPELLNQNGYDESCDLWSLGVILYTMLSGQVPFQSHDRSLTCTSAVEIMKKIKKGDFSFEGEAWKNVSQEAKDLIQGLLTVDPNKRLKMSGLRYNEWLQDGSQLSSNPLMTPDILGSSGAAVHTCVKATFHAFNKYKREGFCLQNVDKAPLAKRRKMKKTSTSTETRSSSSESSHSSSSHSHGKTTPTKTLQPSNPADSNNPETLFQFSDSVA

[1] = tested on: SGK1 (human), O00141 [S422D]
PAK6 (human) = PAK6 (human) (UniProt Q9NQU5)
Sequence of PAK6 (human) (Q9NQU5 whole entry, looked up): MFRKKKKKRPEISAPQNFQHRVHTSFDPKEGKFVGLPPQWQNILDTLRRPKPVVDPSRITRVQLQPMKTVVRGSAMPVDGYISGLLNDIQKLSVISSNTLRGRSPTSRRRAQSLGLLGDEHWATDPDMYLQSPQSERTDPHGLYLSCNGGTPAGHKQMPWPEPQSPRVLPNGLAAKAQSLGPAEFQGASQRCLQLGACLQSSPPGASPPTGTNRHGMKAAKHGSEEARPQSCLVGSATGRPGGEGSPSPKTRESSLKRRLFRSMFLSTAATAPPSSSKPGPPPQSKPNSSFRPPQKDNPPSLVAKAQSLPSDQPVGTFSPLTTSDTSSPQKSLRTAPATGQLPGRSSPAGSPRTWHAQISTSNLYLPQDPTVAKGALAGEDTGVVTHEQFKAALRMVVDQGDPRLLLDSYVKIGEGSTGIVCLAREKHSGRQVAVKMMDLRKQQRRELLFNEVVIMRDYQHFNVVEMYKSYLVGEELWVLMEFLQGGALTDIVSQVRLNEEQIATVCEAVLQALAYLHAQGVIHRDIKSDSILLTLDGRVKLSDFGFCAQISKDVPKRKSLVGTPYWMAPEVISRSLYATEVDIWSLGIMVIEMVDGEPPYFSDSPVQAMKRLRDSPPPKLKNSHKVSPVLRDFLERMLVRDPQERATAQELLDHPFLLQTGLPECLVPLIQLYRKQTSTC

CHEK1 (human) = CHEK1 (human) (UniProt O14757)
Sequence of CHEK1 (human) (O14757 whole entry, looked up): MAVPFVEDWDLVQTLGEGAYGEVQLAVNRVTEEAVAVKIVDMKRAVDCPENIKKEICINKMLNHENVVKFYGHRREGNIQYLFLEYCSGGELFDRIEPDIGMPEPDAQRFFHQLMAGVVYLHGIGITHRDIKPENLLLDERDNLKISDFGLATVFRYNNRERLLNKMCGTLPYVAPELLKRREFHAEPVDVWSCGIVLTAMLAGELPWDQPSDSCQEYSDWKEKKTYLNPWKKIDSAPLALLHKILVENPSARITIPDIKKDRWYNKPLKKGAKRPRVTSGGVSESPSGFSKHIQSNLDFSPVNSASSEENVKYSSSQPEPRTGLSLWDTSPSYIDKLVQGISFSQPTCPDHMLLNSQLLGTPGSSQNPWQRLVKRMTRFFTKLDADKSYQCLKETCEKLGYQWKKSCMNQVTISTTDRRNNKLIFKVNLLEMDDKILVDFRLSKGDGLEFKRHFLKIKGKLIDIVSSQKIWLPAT

MST4 (human) = MST4 (human) (UniProt Q9P289)
[2] = tested on: AKT2 (human), P31751 [S474D]
MAPK12 (human) = MAPK12 (human) (UniProt P53778)

Sequence of MAPKAPK2 (human) (P49137 whole entry, looked up): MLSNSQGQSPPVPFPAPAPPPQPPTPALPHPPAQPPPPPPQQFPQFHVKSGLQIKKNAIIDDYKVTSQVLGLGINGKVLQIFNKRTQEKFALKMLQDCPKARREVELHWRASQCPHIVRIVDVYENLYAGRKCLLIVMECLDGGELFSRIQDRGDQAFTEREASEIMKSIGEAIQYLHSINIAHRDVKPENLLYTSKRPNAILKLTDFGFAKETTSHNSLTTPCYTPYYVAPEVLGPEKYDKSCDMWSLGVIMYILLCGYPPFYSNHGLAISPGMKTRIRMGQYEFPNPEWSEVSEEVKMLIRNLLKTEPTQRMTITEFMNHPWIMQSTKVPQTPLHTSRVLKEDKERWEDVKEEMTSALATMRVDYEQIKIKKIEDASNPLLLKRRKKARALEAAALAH
Sequence of MAPK15 (human) (Q8TD08 whole entry, looked up): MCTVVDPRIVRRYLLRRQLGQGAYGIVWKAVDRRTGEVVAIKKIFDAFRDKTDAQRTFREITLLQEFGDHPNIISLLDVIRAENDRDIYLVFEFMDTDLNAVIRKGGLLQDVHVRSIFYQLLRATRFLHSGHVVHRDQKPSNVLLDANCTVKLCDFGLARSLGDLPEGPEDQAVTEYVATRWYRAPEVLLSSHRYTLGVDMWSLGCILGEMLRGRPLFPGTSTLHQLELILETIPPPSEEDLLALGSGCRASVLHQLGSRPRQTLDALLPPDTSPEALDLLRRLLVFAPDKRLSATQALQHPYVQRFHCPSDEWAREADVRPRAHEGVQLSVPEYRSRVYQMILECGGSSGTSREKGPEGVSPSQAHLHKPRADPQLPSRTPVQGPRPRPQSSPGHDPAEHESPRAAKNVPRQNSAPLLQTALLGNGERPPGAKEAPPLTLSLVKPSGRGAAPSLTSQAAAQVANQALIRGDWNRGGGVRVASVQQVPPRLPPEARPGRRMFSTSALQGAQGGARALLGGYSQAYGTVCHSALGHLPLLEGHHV
Sequence of RIPK2 (human) (O43353 whole entry, looked up): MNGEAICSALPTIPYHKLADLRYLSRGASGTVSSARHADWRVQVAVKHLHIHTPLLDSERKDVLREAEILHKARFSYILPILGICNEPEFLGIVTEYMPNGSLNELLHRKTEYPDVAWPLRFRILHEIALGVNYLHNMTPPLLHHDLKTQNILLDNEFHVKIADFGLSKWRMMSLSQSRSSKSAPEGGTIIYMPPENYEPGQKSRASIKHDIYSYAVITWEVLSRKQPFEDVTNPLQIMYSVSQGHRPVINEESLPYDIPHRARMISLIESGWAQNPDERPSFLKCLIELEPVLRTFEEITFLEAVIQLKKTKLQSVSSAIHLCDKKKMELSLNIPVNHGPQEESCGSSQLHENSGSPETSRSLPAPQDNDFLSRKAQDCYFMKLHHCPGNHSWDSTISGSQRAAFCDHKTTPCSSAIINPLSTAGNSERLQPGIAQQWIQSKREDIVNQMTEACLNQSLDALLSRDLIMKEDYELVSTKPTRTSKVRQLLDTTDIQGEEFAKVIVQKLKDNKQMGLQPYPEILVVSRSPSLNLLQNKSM
Sequence of PAK7 (human) (Q9P286 whole entry, looked up): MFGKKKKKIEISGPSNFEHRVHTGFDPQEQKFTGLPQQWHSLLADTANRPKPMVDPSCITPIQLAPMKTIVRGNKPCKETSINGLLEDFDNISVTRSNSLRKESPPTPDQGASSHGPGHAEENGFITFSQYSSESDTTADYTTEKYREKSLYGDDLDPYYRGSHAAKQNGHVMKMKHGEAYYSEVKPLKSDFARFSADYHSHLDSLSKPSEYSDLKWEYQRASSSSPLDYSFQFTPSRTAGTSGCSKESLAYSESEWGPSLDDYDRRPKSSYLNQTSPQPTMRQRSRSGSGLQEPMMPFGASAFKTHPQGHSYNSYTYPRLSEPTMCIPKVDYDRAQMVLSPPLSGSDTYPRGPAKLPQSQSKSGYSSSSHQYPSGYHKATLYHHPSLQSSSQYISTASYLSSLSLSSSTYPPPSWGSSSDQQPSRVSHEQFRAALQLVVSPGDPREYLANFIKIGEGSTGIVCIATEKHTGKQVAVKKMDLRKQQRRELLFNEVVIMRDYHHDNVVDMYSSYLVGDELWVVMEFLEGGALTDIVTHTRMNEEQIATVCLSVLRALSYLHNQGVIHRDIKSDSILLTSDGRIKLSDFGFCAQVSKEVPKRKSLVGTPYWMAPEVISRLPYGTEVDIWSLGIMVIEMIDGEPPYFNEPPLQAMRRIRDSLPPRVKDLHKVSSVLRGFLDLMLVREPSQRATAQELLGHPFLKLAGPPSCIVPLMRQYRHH

Cc1ccc(Sc2cnc(Nc3cccc(Br)n3)s2)cc1C(=O)N1CCN(C(=O)CN)CC1
residual activity (IGF1R (human); compound 1.0 µM): 2%
residual activity (IGF1R (human); compound 10.0 µM): 2%
residual activity (MAPKAPK2 (human); compound 0.1 µM): 98%
residual activity (MAPKAPK2 (human); compound 1.0 µM): 86%
residual activity (MAPKAPK2 (human); compound 10.0 µM): 80%
residual activity (RIPK2 (human); compound 0.1 µM): 20%
residual activity (RIPK2 (human); compound 1.0 µM): 17%
residual activity (RIPK2 (human); compound 10.0 µM): 8%
residual activity (PAK4 (human); compound 0.1 µM): 69%
residual activity (PAK4 (human); compound 1.0 µM): 67%
residual activity (PAK4 (human); compound 10.0 µM): 20%
residual activity (SRPK1 (human); compound 0.1 µM): 71%
residual activity (SRPK1 (human); compound 1.0 µM): 59%
residual activity (SRPK1 (human); compound 10.0 µM): 11%
residual activity (RPS6KA3 KD1 KD2 (human); compound 0.1 µM): 67%
residual activity (RPS6KA3 KD1 KD2 (human); compound 1.0 µM): 64%
residual activity (RPS6KA3 KD1 KD2 (human); compound 10.0 µM): 18%
residual activity (MAPK15 (human); compound 0.1 µM): 1%
residual activity (MAPK15 (human); compound 1.0 µM): 1%
residual activity (MAPK15 (human); compound 10.0 µM): 1%
residual activity (PAK7 (human); compound 0.1 µM): 62%
residual activity (PAK7 (human); compound 1.0 µM): 58%
residual activity (PAK7 (human); compound 10.0 µM): 22%
residual activity (DYRK1A (human); compound 0.1 µM): 103%
residual activity (DYRK1A (human); compound 1.0 µM): 101%
residual activity (DYRK1A (human); compound 10.0 µM): 61%
residual activity (CSNK1D (human); compound 0.1 µM): 99%
residual activity (CSNK1D (human); compound 1.0 µM): 87%
residual activity (CSNK1D (human); compound 10.0 µM): 68%
residual activity (PLK1 (human); compound 0.1 µM): 97%
residual activity (PLK1 (human); compound 1.0 µM): 85%
residual activity (PLK1 (human); compound 10.0 µM): 114%
residual activity (RPS6KA5 KD1 KD2 (human); compound 0.1 µM): 59%
residual activity (RPS6KA5 KD1 KD2 (human); compound 1.0 µM): 51%
residual activity (RPS6KA5 KD1 KD2 (human); compound 10.0 µM): 22%
residual activity ([1]; compound 0.1 µM): 89%
residual activity ([1]; compound 1.0 µM): 90%
residual activity ([1]; compound 10.0 µM): 41%
residual activity (PAK6 (human); compound 0.1 µM): 71%
residual activity (PAK6 (human); compound 1.0 µM): 72%
residual activity (PAK6 (human); compound 10.0 µM): 27%
residual activity (CHEK1 (human); compound 0.1 µM): 54%
residual activity (CHEK1 (human); compound 1.0 µM): 53%
residual activity (CHEK1 (human); compound 10.0 µM): 52%
residual activity (MST4 (human); compound 0.1 µM): 50%
residual activity (MST4 (human); compound 1.0 µM): 50%
residual activity (MST4 (human); compound 10.0 µM): 17%
residual activity ([2]; compound 0.1 µM): 80%
residual activity ([2]; compound 1.0 µM): 94%
residual activity ([2]; compound 10.0 µM): 46%
residual activity (MAPK12 (human); compound 0.1 µM): 77%
residual activity (MAPK12 (human); compound 1.0 µM): 80%
residual activity (MAPK12 (human); compound 10.0 µM): 45%

— the kinase profiling compilation of Christmann-Franck et al. (2016)
